{"source": "paper PMC5867665", "about": "“Targeting Multiple Effector Pathways in Pancreatic Ductal Adenocarcinoma with a G-Quadruplex-Binding Small Molecule” (Journal of Medicinal Chemistry, 2018)", "key": {"[1]": {"system": "DNA human telomeric G4 sequence 5′-d(GGGTTAGGGTTAGGGTTAGGG)-3′", "assay": "Quantitative G4 binding (fluorescence anisotropy and direct fluorescence titrations)", "method": "Quantitative binding estimates as KD values were obtained from fluorescence anisotropy titrations (MM41) and direct fluorescence titrations (CM03). The DNA human telomeric G4 sequence 5′-d([…])-3′ was used to enable direct comparisons to be made with the modeling studies. Both compounds bind with nanomolar affinity to this DNA G4, with a ∼3-fold difference between MM41 (20 ± 2 nM) and CM03 (67 ± 4 nM).\nHuman telomeric DNA G4 was prepared using oligonucleotides purchased from Integrated DNA Technologies (Coralville, IA, USA). The DNA purity and sequence was verified by mass spectrometry. Desalted oligonucleotide sequences were initially suspended in 150 mM NH4OAc (pH 6.8) in nuclease-free water to yield a final concentration of 1 mM and determined spectroscopically at 260 nm using the nearest-neighbor method. […]\nFluorescence anisotropy measurements were obtained on a Variant Cary Eclipse fluorescence spectrophotometer (Agilent Technologies, Santa Clara, CA, USA) equipped with a polarization attachment. […]\nTo determine dissociation constants, MM41 was added to a 3 mL volume of the experimental buffer (50 mM KCl, 10 mM Tris-HCl, 1 mM EDTA in nuclease-free water at 25 °C, pH 7.3) in a quartz fluorescence cuvette at a fixed concentration of 50 nM, and G4 was titrated into the cuvette. […] Each set of measurements were taken from a 50 s average reading measurement (PMT = 630 V). […]"}, "[2]": {"system": "fetal lung fibroblast-like nononcogenic control cell line (WI-38)", "assay": "96 h SRB growth inhibition assay, WI-38", "assay_type": "cell-based, human", "method": "Compounds were screened with a 96 h SRB (sulforhodamine B) assay for their antiproliferative activity in a panel of human cancer cell lines comprising lung adenocarcinoma (A549), breast adenocarcinoma (MCF7), and PDAC (MIA PaCa-2 and PANC-1) cell lines, as well as a fetal lung fibroblast-like nononcogenic control cell line (WI-38) (Figure 1f). […] Gemcitabine is also active in these lines at low nanomolar levels, although less so in MIA PaCa-2 (IC50 19 ± 5 nM) and more so in BX-PC3 cells (6 ± 2 nM).\nAll cell lines were purchased from ATCC and maintained in appropriate medium supplemented with 10% fetal bovine serum (Invitrogen, UK), 2 mM L-glutamine (Invitrogen, Netherlands), and other components as specified by the suppliers. Cell lines were maintained at 37 °C, 5% CO2, and routinely passaged. Drugs were dissolved in H2O and filtered through 0.22 μm pore-size filter units (stock 10 mM) before addition to appropriate cell line media. Cellular growth inhibition was measured using the sulforhodamine B (SRB) assay in 96-well plates as described previously.[78] The 50% inhibitory concentrations (IC50) were determined by taking the mean absorbance at 540 nm for each drug concentration expressed as a percentage of the absorbance of untreated control wells."}, "[3]": {"assay": "Aqueous solubility and pH of the salt", "assay_type": "physicochemical", "from_the_text": "The synthetic approach to the trisubstituted series adapts previously published procedures to simplify purification and increase yields of both intermediates and final compounds (Scheme 1). 5,5-Dimethyl-1,3-dibromohydantoin was used for the regioselective bromination of the starting material, enabling more efficient and convenient purification. The separation of final products was achieved using column chromatography, giving a 26% overall yield for CM03.\nCM03 was then converted to a mixed hydrochloride/formate salt in order to enhance its aqueous solubility. At a concentration of 5 mg/mL, the pH of the CM03 salt solution was 6.95."}}, "data": [{"smiles": "O=C1c2ccc3c4c(c(NCCN5CCCC5)cc(c24)C(=O)N1CCCN1CCOCC1)C(=O)N(CCCN1CCOCC1)C3=O", "note": "[CM03, 2,7-bis(3-morpholinopropyl)-4-((2-(pyrrolidin-1-yl)ethyl)amino)benzo[lmn][3,8]phenanthroline-1,3,6,8(2H,7H)-tetraone]", "values": [{"measurement": "difference in KD between MM41 and CM03", "setting": "[1]", "value": "~3", "unit": "fold"}, {"measurement": "less activity toward the WI-38 cell line (vs MM41)", "setting": "[2]", "value": "> 4", "unit": "fold"}, {"measurement": "pH of mixed chloride/formate salt", "setting": "[3]", "value": 6.9}, {"measurement": "pH of the CM03 salt solution", "setting": "[3]; concentration of 5 mg/mL, mixed hydrochloride/formate salt", "value": 6.95}]}]}
